Legend:
corn = assay: Bioassay 1, drought stress, corn test (foliage spray, degree of withering); assay type: in vivo; settings: 200 ppm foliage spray; for Withering Index: 2 to 3 leaf stage, 2 days at 25° C., aerial parts cut out, four stages (0: healthy to 3: complete withering), average of test series
Method: (§1) A 5-membered heterocyclyl compound dissolved in DMF was diluted with water so that the concentration of the compound was 200 ppm, and a sufficient amount of the diluted solution was foliage-sprayed on corn and soybean at the 2 to 3 leaf stage.
(§2) Corn and soybean foliage-sprayed with a sufficient amount of a diluted solution prepared by removing the compound were used as the untreated plot.
(§3) The sprayed test plants were cultivated for 2 days under the conditions of a temperature of 25° C. and a day length of 14 hours.
(§4) The aerial parts were cut out and the corn or soybean of the untreated plot was left to stand until completely withered. The degree of withering was investigated from the perspective of four stages (0: healthy to 3: complete withering).
As for corn, it refers to a bent state.
(§5) Abscisic acid was used as a control. Abscisic acid (ABA), known as a plant hormone, is produced by the plant itself and is known as an important signal substance that closes the stomata during drought stress to suppress excessive transpiration of water from the leaves, and induces stress tolerance.
The index of ABA indicates the average of the results of a series of 10 tests. The index of the 5-membered heterocyclyl compounds (A) to (F) indicates the average of the results of a series of 2 tests.

soybean = assay: Bioassay 1, drought stress, soybean test (foliage spray, degree of withering); assay type: in vivo; settings: 200 ppm foliage spray; for Withering Index: 2 to 3 leaf stage, 2 days at 25° C., aerial parts cut out, four stages (0: healthy to 3: complete withering), average of test series
Method: as §1, §2, §3, §4
Here, with respect to soybean, complete withering refers to a state in which all the leaves of the soybean are withered and the upper part is curved.
as §5
The index of ABA indicates the average of the results of a series of 10 tests. The index of the 5-membered heterocyclyl compound (F) indicates the average of the results of a series of 2 tests.

Arabidopsis thaliana = assay: Bioassay 2, salt stress, survival of Arabidopsis thaliana plants in 150 mM NaCl; assay type: in vivo; settings: 168 h, 5 ppm compound for 1 day, then 150 mM NaCl for 7 days, green individuals alive, yellowed or bleached dead, read-out: Survival Rate (%)
Method: Arabidopsis thaliana seeds were sterilized with 70% ethanol and then sown in a petri dish containing HYPONeX (sterilized) diluted 4,000 times with water. The compound was diluted with sterile water so that the concentration of the compound dissolved in DMSO was 5 ppm. 65 μl of each drug solution was dispensed into a 96-well microplate, into which 5 Arabidopsis thaliana plants on their 8th day of sowing were placed and left to stand for 1 day. The next day, the plants were transferred to a well containing 65 μl of 150 mM NaCl and cultured for 7 days. The treatment was performed in two series, and in the investigation, a stereomicroscope was used to determine their survival, with the green individuals identified as alive and the yellowed or bleached individuals as dead.

| Compound | Withering Index (corn) | responders at 5 ppm (Arabidopsis thaliana) [%] | other results |
| --- | --- | --- | --- |
| CC1=CC(=O)CC(C)(C)[C@@]1(O)/C=C/C(C)=C\C(=O)O [ABA, Abscisic acid, reference compound] | 1.1 | – | Withering Index (soybean): 0.5 |
| N#CCON=C1CN(C(=O)Cc2ccc(-c3noc(C(F)(F)F)n3)cc2)C1 [A] | 1.5 | – | – |
| CCON=C1CN(C(=O)C(OC)c2ccc(-c3noc(C(F)(F)F)n3)cc2)C1 (centres unmarked) [B] | 1.5 | – | – |
| O=c1cccnn1Cc1ccc(-c2noc(C(F)(F)F)n2)cc1 [C] | 1.5 | – | – |
| CCON=C1CN(C(=O)C(OC)c2ccc(-c3noc(C(F)(F)F)n3)cc2F)C1 (centres unmarked) [Compound 1] | – | 80 | – |
| C=CCON=C1CN(C(=O)Cc2ccc(-c3noc(C(F)(F)F)n3)cc2)C1 [Compound 2] | – | 70 | – |
| CON=C1CN(c2cc(=O)n(Cc3ccc(-c4noc(C(F)(F)F)n4)cc3)cn2)C1 [Compound 3] | – | 70 | – |
| O=c1cc(OCc2ccc(-c3noc(C(F)(F)F)n3)cc2)ccn1CC1CC1 [Compound 4] | – | – | Withering Index (soybean): 1.5; melting point: 115 to 117 °C |
| CSc1nccc(OCc2ccc(-c3noc(C(F)(F)F)n3)cc2)n1 [Compound 5] | – | 80 | – |
| FC(F)(F)c1nc(-c2ccc(COc3cc(Cl)ncn3)cc2)no1 [Compound 6] | 1.0 | – | melting point: 144 to 146 °C |
| FC(F)(F)c1nc(-c2ccc(COc3cc(-n4cncn4)ncn3)cc2)no1 [Compound 7] | – | 70 | – |
| CC(=NOC/C=C/Cl)c1ccc(C2=NOC(O)(C(F)(F)F)C2)cc1 (centres unmarked) [Compound 8] | 1.5 | – | melting point: 126 to 128 °C |
| CON=C(C)c1ccc(C2=NOC(OC)(C(F)(F)F)C2)cc1 (centres unmarked) [Compound 9] | 1.5 | – | melting point: 80 to 82 °C |
| COc1cncn(Cc2ccc(-c3noc(C(F)(F)F)n3)cc2)c1=O [Compound 10] | 1.0 | – | melting point: 119 to 120 °C |
| COCCn1cccc(OCc2ccc(-c3noc(C(F)(F)F)n3)cc2)c1=O [Compound 11] | 1.0 | – | melting point: 127 to 130 °C |
| O=C(c1ccc(-c2noc(C(F)(F)F)n2)cc1)N1CCCCC1 [D] | 1.5 | 80 | – |
| CC1(NC(=O)c2ccc(-c3noc(C(F)(F)F)n3)cc2)CC1 [E] | 1.5 | – | – |
| O=C(NC12CC(C1)C2)c1ccc(-c2noc(C(F)(F)F)n2)cc1 [F] | 0.5 | – | reduction of drought stress compared with ABA (corn; result in words): showed an index higher than that of ABA; Withering Index (soybean): 1.5; reduction of drought stress compared with ABA (soybean; result in words): reduces the drought stress, although to a lesser extent than ABA |
| CCON=C1CN(C(=O)C(C)c2ccc(-c3noc(C(F)(F)F)n3)cc2)C1 (centres unmarked) [G] | – | 80 | – |
| Cc1nc(C)n(Cc2ccc(-c3noc(C(F)(F)F)n3)cc2)c(=O)c1Cl [H] | 1.5 | – | – |
| O=c1c(Cl)c(Cl)cnn1Cc1ccc(-c2noc(C(F)(F)F)n2)cc1 [J] | 1.0 | – | – |
| O=C(NC1CC1)c1ccn(Cc2ccc(-c3noc(C(F)(F)F)n3)cc2)n1 [K] | 1.0 | – | – |
| CCOC(=O)c1ccnn1Cc1ccc(-c2noc(C(F)(F)F)n2)cc1 [L] | – | – | Withering Index (soybean): 1.5 |
| O=C1CCCCN1Cc1ccc(-c2noc(C(F)(F)F)n2)cc1 [M] | – | 70 | – |

— US20230232830A1, “METHOD FOR REDUCING OR PREVENTING EFFECT OF NON-BIOLOGICAL STRESS ON PLANT” (NIPPON SODA CO., LTD., priority 2020, published 2023)
